Source: US20130231347A1, “METHOD OF TREATMENT WITH BRAF INHIBITOR” (GLAXOSMITHKLINE INTELLECTUAL PROPERTY (NO.2) LIMITED, priority 2010, published 2013)
Read-outs that look alike come from different tables or passages of the source.

Columns and labels:
A375 F11 cells = experiment: Cell growth inhibition assay (Cell Titer Glo, 3 days); type: cell-based; settings: Homo sapiens, 72 h, F11: NRAS WT, MEK1 WT, single agent, mean ± std, read-out: IC50, Single Agent Effect, Compound A
Procedure: (§3) A clonal isolate, hereinafter referred to as “A375 F11”, was obtained from the A375 cell line (obtained from ATCC), based on increased sensitivity to a BRAF inhibitor. A375 F11 cells were exposed to increasing concentrations of Compound A and maintained in a final concentration of 1.26 μM or 1.6 μM. 12R5-3, 12R8-1, 12R8-3, 16R5-5, 16R6-2, 16R6-3 and 16R6-4 were derived as single cell clones from mixed populations of these A375 F11 cells selected to grow in the presence of Compound A. All cells were grown in RPMI 1640 medium containing 10% Fetal Bovine Serum (FBS).
(§4) All cells were cultured without compound, e.g. Compound A, for a minimum of 72 hours prior to cell plating. Cells were assayed in a 96-well tissue culture plate (NUNC 136102) of RPMI medium containing 10% FBS for all cells at 1,000 cells per well. Approximately 24 hours after plating, cells were exposed to ten, three-fold serial dilutions of compound or the combination of the two agents at a constant molar to molar ratio, e.g. 10:1 Compound A to Compound B, in RPMI media containing 10% FBS. Cells were incubated in the presence of compounds for 3 days. ATP levels were determined by adding Cell Titer Glo® (Promega) according to the manufacturer's protocol. Briefly, Cell Titer Glo® was added each plate, incubated for 30 minutes then luminescent signal was read on the SpectraMax L plate reader with a 0.5 sec integration time. Inhibition of cell growth was estimated after treatment with compound or combination of compounds for three days and comparing the Cell Titer Glo® signal to cells treated with vehicle (DMSO). Cell growth was calculated relative to vehicle (DMSO) treated control wells.
(§5) For single agent and combination treatments, cells were exposed to compounds at a fixed-dose-ratio, and dose response curves were fit to the experimental data and analyzed using regression models.

[1] = test system: 12R5-1 (A375 F11 clone with acquired resistance to Compound A); experiment: as above; type: cell-based; settings: Homo sapiens, A-375, 72 h, 12R5-1: NRAS WT, MEK1 HET 59delK, single agent, read-out: IC50, Single Agent Effect, Compound A
Procedure: as §3, §4, §5

[2] = test system: 12R5-5 (A375 F11 clone with acquired resistance to Compound A); experiment: as above; type: cell-based; settings: Homo sapiens, A-375, 72 h, 12R5-5: NRAS WT, MEK1 HET 59delK, single agent, read-out: IC50, Single Agent Effect, Compound A
Procedure: as §3, §4, §5

[3] = test system: 12R5-3 (A375 F11 clone with acquired resistance to Compound A); experiment: as above; type: cell-based; settings: Homo sapiens, A-375, 72 h, 12R5-3: NRAS A146A/T, MEK1 WT, single agent, read-out: IC50, Single Agent Effect, Compound A
Procedure: as §3, §4, §5

[4] = test system: 12R8-1 (A375 F11 clone with acquired resistance to Compound A); experiment: as above; type: cell-based; settings: Homo sapiens, A-375, 72 h, 12R8-1: NRAS A146A/T, MEK1 WT, single agent, read-out: IC50, Single Agent Effect, Compound A
Procedure: as §3, §4, §5

[5] = test system: 12R8-3 (A375 F11 clone with acquired resistance to Compound A); experiment: as above; type: cell-based; settings: Homo sapiens, A-375, 72 h, 12R8-3: NRAS A146A/T, MEK1 WT, single agent, read-out: IC50, Single Agent Effect, Compound A
Procedure: as §3, §4, §5

[6] = test system: 16R6-3 (A375 F11 clone with acquired resistance to Compound A); experiment: as above; type: cell-based; settings: Homo sapiens, A-375, 72 h, 16R6-3: NRAS A146A/T, MEK1 P387P/S, single agent, read-out: IC50, Single Agent Effect, Compound A
Procedure: as §3, §4, §5

[7] = test system: 16R5-5 (A375 F11 clone with acquired resistance to Compound A); experiment: as above; type: cell-based; settings: Homo sapiens, A-375, 72 h, 16R5-5: NRAS Q61Q/K, MEK1 P387P/S, single agent, read-out: IC50, Single Agent Effect, Compound A
Procedure: as §3, §4, §5

[8] = test system: 16R6-2 (A375 F11 clone with acquired resistance to Compound A); experiment: as above; type: cell-based; settings: Homo sapiens, A-375, 72 h, 16R6-2: NRAS Q61Q/K, MEK1 P387P/S, single agent, read-out: IC50, Single Agent Effect, Compound A
Procedure: as §3, §4, §5

[9] = test system: 16R6-4 (A375 F11 clone with acquired resistance to Compound A); experiment: as above; type: cell-based; settings: Homo sapiens, A-375, 72 h, 16R6-4: NRAS Q61Q/K, A146A/T, MEK1 P387P/S, single agent, read-out: IC50, Single Agent Effect, Compound A
Procedure: as §3, §4, §5

[10] = test system: YUSIT1 clones that acquired resistance to Compound A (BRAF V600K); experiment: Cell growth inhibition assay, resistant YUSIT1 clones; type: cell-based, human
Excerpt: The YUSIT1 melanoma cells were obtained from Yale Dermatology Cell Culture Facility.

[11] = test system: phosphorylation of MEK, ERK, S6P and cyclin D1 protein in A375 cells; experiment: Western blot of signaling effects, parental cells; type: cell-based, human; settings: western blot (FIG. 10)
Excerpt: (§1) Phospho-AKT (T308), phospho-AKT (S473), AKT, ERK, phospho-S6P (S235/236), S6P, cyclin D1, phospho-MEK1/2 (S217/S221), MEK1/2, MEK1, MEK2, and cleaved PARP antibodies were purchased from Cell Signaling. Primary antibodies to GAPDH, RAF-1, BRAF, and ARAF were purchased from Santa Cruz Biotechnology. Diphospho-ERK1/2 (T202/Y204) antibodies were purchased from Sigma and p27kip1 antibodies were purchased from Epitomics. Anti-Mouse IRDYE® 800CW antibody was purchased from LI-COR Biosciences. Anti-rabbit ALEXA FLUOR® 680 antibodies were purchased from Invitrogen. Compound A, Compound B, Compound C, and PLX4032 (20) were synthesized by GlaxoSmithKline Research Labs and the structures are shown in FIG. 7.

[12] = test system: phosphorylation of MEK, ERK, S6P in A375 clones resistant to Compound A; experiment: Western blot of signaling effects, resistant clones; type: cell-based, human; settings: western blot (FIG. 10)
Excerpt: as §1

[13] = test system: A375 cells expressing MEK1C121S; experiment: Proliferation of BacMAM-transduced A375 cells; type: cell-based; settings: Homo sapiens, A-375, read-out: IC50, inhibition of proliferation
Procedure: (§2) BacMAM constructs were generated using MEK1 cDNA and mutations in MEK1 were introduced using site directed mutagenesis. BacMAM virus particles were prepared as described in the supplemental methods. A375 cells were transduced with the indicated BacMAM virus. Forty-eight hours post transduction, cells were plated for subsequent proliferation and western blot analysis as described above.

[14] = test system: A375 cells expressing MEK1F129L; experiment: Proliferation of BacMAM-transduced A375 cells; type: cell-based; settings: Homo sapiens, A-375, read-out: IC50, inhibition of proliferation
Procedure: as §2

[15] = test system: A375 cells expressing MEK1K59del; experiment: Proliferation of BacMAM-transduced A375 cells; type: cell-based; settings: Homo sapiens, A-375, read-out: IC50, inhibition of proliferation
Procedure: as §2

[16] = test system: A375 cells expressing MEK1P124L; experiment: Proliferation of BacMAM-transduced A375 cells; type: cell-based; settings: Homo sapiens, A-375, read-out: IC50, inhibition of proliferation
Procedure: as §2

[17] = test system: A375 cells expressing MEK1Q56P; experiment: Proliferation of BacMAM-transduced A375 cells; type: cell-based; settings: Homo sapiens, A-375, read-out: IC50, inhibition of proliferation
Procedure: as §2

[18] = test system: A375 cells expressing wild-type MEK1; experiment: Proliferation of BacMAM-transduced A375 cells; type: cell-based; settings: Homo sapiens, A-375, read-out: IC50, inhibition of proliferation
Procedure: as §2

A375 cells, Mock = experiment: Proliferation of BacMAM-transduced A375 cells; type: cell-based; settings: Homo sapiens, A-375, read-out: IC50, inhibition of proliferation
Procedure: as §2

[19] = test system: A375 F11 clones that acquired resistance to Compound A; experiment: Cell growth inhibition assay, resistant A375 clones taken together; settings: Homo sapiens
Procedure: as §3, §4, §5

CC(C)(C)c1nc(-c2cccc(NS(=O)(=O)c3c(F)cccc3F)c2F)c(-c2ccnc(N)n2)s1 [Compound A, N-{3-[5-(2-Amino-4-pyrimidinyl)-2-(1,1-dimethylethyl)-1,3-thiazol-4-yl]-2-fluorophenyl}-2,6-difluorobenzenesulfonamide]
IC50 (A375 F11 cells): 24 ± 17 nM | IC50 [1]: > 10000 nM | IC50 [2]: > 10000 nM | IC50 [3]: > 10000 nM | IC50 [4]: > 10000 nM | IC50 [5]: > 10000 nM | IC50 [6]: > 10000 nM | IC50 [7]: > 10000 nM | IC50 [8]: > 10000 nM | IC50 [9]: > 10000 nM | IC50 ([10]; Homo sapiens, read-out: IC50, cell growth inhibition): > 500 nM | reduced sensitivity compared to the parental YUSIT1 cells ([10]; YUSIT1 clones resistant to Compound A, single agent (FIG. 9)): ≥ 38 fold | decrease of cyclin D1 protein levels [11]: more than 65% | inhibition of phosphorylation of MEK, ERK, and S6P [11]: more than 75% | reduction of ERK phosphorylation [12]: less than 50% | reduction of S6P phosphorylation [12]: < 25% | IC50 [13]: ≥ 330 nM | IC50 [14]: 140 nM | IC50 [15]: 179 nM | IC50 [16]: 84 nM | IC50 [17]: ≥ 420 nM | IC50 [18]: 28 nM | IC50 (A375 cells, Mock): 30 nM | IC50 ([19]; A-375, read-out: IC50, cell growth): > 10000 nM | IC50 ([19]; A-375, read-out: IC50, cell growth inhibition, single agent): > 10000 nM | IC50 ([19]; A-375, read-out: IC50 of the combination, for Compound A): 178 to 392 nM
